Reference: patent publication US9334280B2, “Synthetic rigidin analogues as anticancer agents, salts, solvates and prodrugs thereof, and method of producing same” (New Mexico Technical Research Foundation, priority 2012, dated 2016)

Legend:
[1] = system: UM-SCC10A head and neck cancer cells; assay: MTT antiproliferative assay, UM-SCC10A; type: cell-based; conditions: UMSCC-10A, Table 1A, 48 h, read-out: Concentration required to reduce the viability of cells by 50%, UM-SCC10A
Procedure: (§1) To evaluate antiproliferative properties of the compounds of Formula I, mitochondrial dehydrogenase activities were measured using the MTT assay. The cell lines were prepared by trypsinizing and seeding […] cells per well into microplates. All compounds were reconstituted in dimethyl sulfoxide (DMSO) at a concentration of either 100 mM or 25 mM prior to treatment. The cells were grown for 24 hrs before treatment at concentrations ranging from 0.004 to 100 microM and incubated for 48 hrs in 200 microL media. 20 microL of MTT reagent in serum free medium (5 mg/mL) was added to each well and incubated further for 2 hrs. Media was removed and the resulting formazan crystals were re-solubilized in 100 microL of DMSO and the optical density (OD) was measured using a Thermomax Molecular Device plate reader at a wavelength of 490 nm. The experiments were performed in quadruplicate and repeated at least twice for each compound per cell line. Cells treated with 0.1% DMSO were used as a negative control, while phenyl arsine oxide (PAO) was used as a positive killing control.

[2] = system: MCF-7 mammary gland adenocarcinoma cells; assay: MTT antiproliferative assay, MCF-7; type: cell-based; conditions: Homo sapiens, MCF7; Table 1; 48 h treatment, MTT, ± SD; read-out: GI50 in vitro Values, MCF-7
Outline: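 Cells were seeded at 4×10^3 per well, grown 24 h, then treated at 0.04–100 μM for 48 h; HeLa in DMEM and MCF-7 in RPMI, each with 10% FBS. MTT for 2 h, formazan dissolved in DMSO, A490 read; quadruplicate, at least two repeats, 0.1% DMSO vehicle control and 1 μM phenyl arsine oxide as positive killing control.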

HeLa cells = assay: Flow cytometric cell cycle analysis (Vybrant Orange); type: cell-based, human; conditions: 24 h
Procedure: To assess the effects of the analogues on the cell cycle, cell cycle analysis was performed. 70-80% confluent HeLa cells were trypsinized and seeded at an initial density of 2×10^5 cell per well into 6 well plates in DMEM supplemented with 10% FBS, 100 mg/L penicillin G and 100 mg/L streptomycin. The cells were allowed to adhere overnight and before treatment with compounds of Formula I at concentrations ranging from 0.1 to 10 microM. After 24 hrs, the cells were washed 3× with DMEM, trypsinized, pelleted, and re-suspended in 200 microL of culture medium containing 10 microM (2 microL/mL) vybrant orange dye. The samples in the labeling solution were transferred into Falcon tubes and incubated in a water bath for 30 mins at 37° C. The samples were then analyzed using a Becton Dickinson FACscan flow cytometer with CellQuest software. A 488 nm laser was utilized using parameters that can be found in Appendix B; 10,000 events were collected for analysis. Cells treated with 0.1% DMSO were used as a negative control and cells treated with colchicine were used as a positive control.
In further anticancer evaluation of compounds of Formula I cell cycle analysis was performed using the cell permeable DNA binding dye Vybrant Orange. In a normal population, cells are distributed among the three major phases of the cell cycle, G0/G1 in which there is one set of paired chromosomes per cell (2n), followed by the S or synthesis phase in which DNA is synthesized in preparation for division (there is a variable amount of DNA present during this phase) and finally G2/M phase in which the chromosomes of each cell have now been duplicated (4n). This DNA content can be measured using fluorescent DNA selective probes such as Vybrant Orange that produce signals that are proportional to DNA mass per cell. This dye interacts with double stranded DNA (dsDNA) in living cells and becomes fluorescent upon binding and thus can be used to track DNA content as cells progress through the various phases of the cell cycle using flow cytometry. Cell cycle analysis was performed on HeLa cells using Rig8 at various concentrations above and below the respective GI50. Since colchicine is a known antimitotic drug, it was utilized as a positive control, while HeLa cells treated with 0.1% DMSO were used as a negative control. FIG. 6 illustrates the results of this analysis using Rig 8 on HeLa cells.

U373 glioblastoma cells = assay: MTT antiproliferative assay, U373; type: cell-based, human; conditions: Homo sapiens, U373 MG; Table 2; 48 h, MTT; read-out: GI50 in vitro values, U373
Procedure: as §1
Human cancer cell lines were obtained from the American Type Culture Collection (ATCC, Manassas, Va., USA), the European Collection of Cell Culture (ECACC, Salisbury, UK) and the Deutsche Sammlung von Mikroorganismen and Zellkulturen (DSMZ, Braunschweig, Germany). Human cervical adenocarcinoma HeLa cells were cultured in DMEM supplemented with 10% fetal bovine serum (FBS). Human mammary carcinoma MCF-7 cells were cultured in RPMI supplemented with 10% FBS. The U87 and U373 cells were cultured in DMEM culture medium (Lonza code 12-136F, Vervier, Belgium), while the SKMEL-28 and A549 cells were cultured in RPMI culture medium (Lonza; code 12-115F) supplemented with 10% heat-inactivated FBS (Lonza, FBS South America code DE14-801F). […] All cell lines were cultured in T25 flasks, maintained and grown at 37° C., 95% humidity, 5% CO2.
To evaluate antiproliferative properties of the synthesized compounds, the MTT assay was used. The cell lines were assessed by trypsinizing each cell line and seeding 4×10^3 cells per well into 96-well plates. All compounds were dissolved in DMSO at a concentration of either 100 mM or 50 mM prior to cell treatment. The cells were grown for 24 h and then treated with compounds at concentrations ranging from 0.04 to 100 μM and incubated for 48 h in 200 μL media. 20 μL of MTT reagent in serum free medium (5 mg/mL) was added to each well and incubated further for 2 h. Media was removed, and the resulting formazan crystals were re-solubilized in 200 μL of DMSO. A490 was measured using a Thermomax Molecular Device plate reader. The experiments were performed in quadruplicate and repeated at least twice for each compound per cell line. […]

IC50 [1]: 90 nM
GI50 [2]: 95 ± 10 nM
GI50 (U373 glioblastoma cells): 30 nM
SMILES: O=C(c1ccccc1)c1[nH]c2[nH]cnc(=O)c2c1-c1cc(Br)cc(Br)c1 [Rig8, 6-Benzoyl-5-(3,5-dibromophenyl)-1H-pyrrolo[2,3-d]pyrimidin-4(7H)-one]
% Relative DNA Content, G0/G1 (HeLa cells; 0.1 μM): 51.5 ± 4.3%
% Relative DNA Content, G2/M (HeLa cells; 0.1 μM): 36.6 ± 4.6%
% Relative DNA Content, S (HeLa cells; 0.1 μM): 14.1 ± 3.9%
% Relative DNA Content, G0/G1 (HeLa cells; 1 μM): 12.7 ± 2.2%
% Relative DNA Content, G2/M (HeLa cells; 1 μM): 73.4 ± 5.3%
% Relative DNA Content, S (HeLa cells; 1 μM): 9.7 ± 2.4%
% Relative DNA Content, G0/G1 (HeLa cells; 10 μM): 5.6 ± 2.2%
% Relative DNA Content, G2/M (HeLa cells; 10 μM): 85.9 ± 2.1%
% Relative DNA Content, S (HeLa cells; 10 μM): 5.3 ± 2.4%
cell cycle arrest (in words) (HeLa cells; 0.1-10 μM): dose-dependent cell cycle arrest in the G2/M phase
